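Results reflect a 48-hour exposure of cells in 96-well plates to compound at five concentrations. Here, GI50 denotes the concentration required for 50% inhibition of growth. TGI: concentration producing complete growth inhibition.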
Experiments:
Assay in all cases: NCI tumour cell line growth inhibition, 48 h
DMS 273 small cell lung = tested on: DMS 273 small cell lung
LXFL 529 NSCLC = tested on: LXFL 529 NSCLC
DMS 114 small cell lung = tested on: DMS 114 small cell lung
HOP-18 NSCLC = tested on: HOP-18 NSCLC
M19-MEL melanoma = tested on: M19-MEL melanoma
KM20L2 colon = tested on: KM20L2 colon
MDA-N = tested on: MDA-N
XF 498 CNS = tested on: XF 498 CNS
RXF-631 renal = tested on: RXF-631 renal
SN12K1 renal = tested on: SN12K1 renal
P388 leukemia = tested on: P388 leukemia
P388/ADR leukemia = tested on: P388/ADR leukemia

CCCCC(C(=O)CCC(=O)Nc1ccc(Cl)c(Cl)c1)C(=O)C(C)C (stereo unspecified)
TGI (DMS 273 small cell lung): > 100 µM | TGI (LXFL 529 NSCLC): > 100 µM | TGI (DMS 114 small cell lung): > 100 µM | TGI (HOP-18 NSCLC): > 100 µM | TGI (M19-MEL melanoma): > 100 µM | TGI (KM20L2 colon): > 100 µM

CCc1nc(N)nc(N)c1-c1ccc2nnn(O)c2c1
TGI (MDA-N): > 100 µM

CC1(Br)CC2OC3(Br)C=CC(C)(O)C2(CC1=O)C3(C)C (stereo unspecified)
TGI (DMS 273 small cell lung): > 100 µM | TGI (LXFL 529 NSCLC): > 100 µM | TGI (XF 498 CNS): > 100 µM | TGI (DMS 114 small cell lung): > 100 µM | TGI (HOP-18 NSCLC): > 100 µM | TGI (KM20L2 colon): > 100 µM

Nc1nc(N)c(-c2ccccc2)c(C(=O)Nc2ccccc2)n1
TGI (XF 498 CNS): > 100 µM | TGI (HOP-18 NSCLC): > 100 µM | TGI (M19-MEL melanoma): > 100 µM | TGI (KM20L2 colon): > 100 µM

CONC(C)=O
TGI (MDA-N): > 100 µM

N#CCCCCCOCCOCCOCCOCCOCCCCCC#N
TGI (DMS 273 small cell lung): > 100 µM | TGI (LXFL 529 NSCLC): > 100 µM | TGI (RXF-631 renal): > 100 µM | TGI (DMS 114 small cell lung): > 100 µM | TGI (HOP-18 NSCLC): > 100 µM | TGI (M19-MEL melanoma): > 100 µM | TGI (KM20L2 colon): > 100 µM

CCC(O)C1Cc2c(C)cc3c(c2O1)C(=O)c1ccccc1C3=O (stereo unspecified)
TGI (DMS 273 small cell lung): > 100 µM | TGI (LXFL 529 NSCLC): > 100 µM | TGI (XF 498 CNS): 58.9 µM | TGI (DMS 114 small cell lung): 97.7 µM | TGI (HOP-18 NSCLC): 73.6 µM | TGI (M19-MEL melanoma): > 100 µM | TGI (KM20L2 colon): > 100 µM

O=[N+]([O-])c1ccc(C2=Nn3c(nnc3-c3ccc(Cl)cc3)SC2)o1
TGI (DMS 273 small cell lung): 31.1 µM | TGI (LXFL 529 NSCLC): 14.1 µM | TGI (RXF-631 renal): 27.9 µM | TGI (XF 498 CNS): 28.7 µM | TGI (MDA-N): 16.4 µM | TGI (DMS 114 small cell lung): 12.4 µM | TGI (HOP-18 NSCLC): 33.6 µM | TGI (M19-MEL melanoma): 7.95 µM | TGI (KM20L2 colon): 16.1 µM

NC1CCCCC1N.O=[Se]([O-])[O-].[Pt+4] (stereo unspecified)
GI50 (LXFL 529 NSCLC): 6.25 µM | TGI (LXFL 529 NSCLC): > 100 µM | GI50 (HOP-18 NSCLC): 27 µM | TGI (HOP-18 NSCLC): > 100 µM | GI50 (M19-MEL melanoma): 0.412 µM | TGI (M19-MEL melanoma): 15.5 µM | GI50 (KM20L2 colon): 0.233 µM | TGI (KM20L2 colon): 26.9 µM

CCOC(=O)C(N=C(c1ccccc1)c1ccccc1)N(C(=O)OC(C)(C)C)C(=O)OC(C)(C)C (stereo unspecified)
TGI (LXFL 529 NSCLC): > 100 µM | TGI (DMS 114 small cell lung): > 100 µM | TGI (M19-MEL melanoma): > 100 µM | TGI (KM20L2 colon): > 100 µM

CCOC(=O)Cc1csc(Nc2ccc(OCC)cc2)n1
TGI (LXFL 529 NSCLC): > 100 µM | TGI (RXF-631 renal): > 100 µM | TGI (XF 498 CNS): > 100 µM | TGI (DMS 114 small cell lung): > 100 µM | TGI (HOP-18 NSCLC): > 100 µM | TGI (M19-MEL melanoma): > 100 µM | TGI (KM20L2 colon): > 100 µM

O=C(OC1CCC2OOC1O2)c1ccc([N+](=O)[O-])cc1 (stereo unspecified)
TGI (DMS 273 small cell lung): > 100 µM | TGI (DMS 114 small cell lung): > 100 µM | TGI (M19-MEL melanoma): > 100 µM | TGI (KM20L2 colon): > 100 µM

CCOC(=O)NC/C=C/COC1CCCCO1 (stereo unspecified)
TGI (DMS 273 small cell lung): > 100 µM | TGI (LXFL 529 NSCLC): > 100 µM | TGI (DMS 114 small cell lung): > 100 µM | TGI (HOP-18 NSCLC): > 100 µM | TGI (M19-MEL melanoma): > 100 µM | TGI (KM20L2 colon): > 100 µM

Cc1cc(C)n(-c2ccnc3cc(Cl)ccc23)n1
TGI (DMS 273 small cell lung): > 100 µM | TGI (LXFL 529 NSCLC): > 100 µM | TGI (XF 498 CNS): > 100 µM | TGI (DMS 114 small cell lung): > 100 µM | TGI (HOP-18 NSCLC): > 100 µM | TGI (M19-MEL melanoma): > 100 µM | TGI (KM20L2 colon): > 100 µM

COc1cc2c(cc1OC)CC(=O)Nc1cc(OC)c(OC)cc1CC2
TGI (DMS 273 small cell lung): > 100 µM | TGI (LXFL 529 NSCLC): > 100 µM | TGI (RXF-631 renal): > 100 µM | TGI (XF 498 CNS): > 100 µM | TGI (DMS 114 small cell lung): 91.9 µM | TGI (HOP-18 NSCLC): > 100 µM | TGI (M19-MEL melanoma): > 100 µM | TGI (KM20L2 colon): > 100 µM

COC(=O)C1=COC(C)C2CN3CCc4c([nH]c5cc(OC)c(OC)cc45)C3CC12 (stereo unspecified)
TGI (MDA-N): > 100 µM

CCCCNC(=O)C1C(=O)N(CCCC)C(=O)/C1=N\N (stereo unspecified)
TGI (DMS 273 small cell lung): > 100 µM | TGI (LXFL 529 NSCLC): > 100 µM | TGI (RXF-631 renal): > 100 µM | TGI (XF 498 CNS): > 100 µM | TGI (DMS 114 small cell lung): > 100 µM | TGI (HOP-18 NSCLC): > 100 µM | TGI (M19-MEL melanoma): > 100 µM | TGI (KM20L2 colon): > 100 µM

CC1=CCCC2C1(C)CCC(C)C2(C)Cc1cc(O)ccc1O (stereo unspecified)
TGI (SN12K1 renal): 13.5 µM | TGI (DMS 273 small cell lung): 20.2 µM | TGI (XF 498 CNS): 21.7 µM | TGI (MDA-N): 25.3 µM | TGI (P388 leukemia): 4.94 µM | TGI (P388/ADR leukemia): 13 µM | TGI (DMS 114 small cell lung): 13.3 µM | TGI (HOP-18 NSCLC): 36.2 µM | TGI (M19-MEL melanoma): 20.8 µM | TGI (KM20L2 colon): 27.9 µM

CC(N)(/C=C/c1ccccc1)C(=O)O (stereo unspecified)
TGI (MDA-N): > 100 µM

C[C@@H]1CCC([C@@H](C)[C@H]2CC[C@H]3[C@@H]4CC[C@H]5C[C@@H](O)CC[C@]5(C)[C@H]4CC[C@]23C)=NC1
TGI (MDA-N): > 100 µM

— PubChem BioAssay (NCI)
